Measured values taken from paper PMC2655291 (BMC Structural Biology, 2009).
Read-outs that look alike come from different tables or passages of the source. Blank lines part the entries; values can stand above or below the molecule they belong to.

Tests used:
[1] = target: T1, quinone reductase 2 (NQO2) (Homo sapiens, UniProt P16083)
T1 sequence (P16083 1-231): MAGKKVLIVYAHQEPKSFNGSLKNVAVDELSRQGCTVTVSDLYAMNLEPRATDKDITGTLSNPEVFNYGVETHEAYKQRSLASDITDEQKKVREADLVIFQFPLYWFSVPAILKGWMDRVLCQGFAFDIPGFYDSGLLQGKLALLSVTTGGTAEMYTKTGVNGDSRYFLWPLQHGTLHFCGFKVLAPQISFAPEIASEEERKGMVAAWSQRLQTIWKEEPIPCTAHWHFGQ

[2] = target: T1, quinone reductase 2 (NQO2); remark: listed apart in the source
[3] = target: NQO2 S16D mutant (human); test: SEC; analytical gel filtration of the purified mutant (data not shown); monomer and dimer

- IC50 [1]: 381 nM
Molecule: Cc1cn(-c2cc(NC(=O)c3ccc(C)c(Nc4nccc(-c5cccnc5)n4)c3)cc(C(F)(F)F)c2)cn1 [nilotinib]

Molecule: O=c1c(O)c(-c2ccc(O)c(O)c2)oc2cc(O)cc(O)c12 [quercetin]
- IC50 [2]: 42 nM

- stoichiometry N [3]: 2
Molecule: NQO2 S16D mutant (enzyme)
